From ChEMBL document CHEMBL4196194, “De Novo Design of α-Helical Lipopeptides Targeting Viral Fusion Proteins: A Promising Strategy for Relatively Broad-Spectrum Antiviral Drug Discovery” (J Med Chem, 2018)
Calls of active or inactive are those of the source. The rule behind the calls is not given here. Where a SMILES comes first, the peptide text is derived from it. [ ]: non-standard residue; d: D form. The star is where a group is joined. Palmitoyl = CCCCCCCCCCCCCCCC(=O)*; βAla = NCCC(=O)O

Assays:
Type in all cases: functional, organism-based
Influenza A virus [1] = experiment: Antiviral activity against oseltamivir-resistant Influenza A virus (H1N1) LN/1109
Influenza A virus [2] = experiment: Antiviral activity against oseltamivir-resistant Influenza A virus (H1N1) TJ/15 up to 100 uM
Influenza A virus [3] = experiment: Antiviral activity against oseltamivir-resistant Influenza A virus (H1N1) TJ/15

SMILES | EC50 (Influenza A virus [1]) | inhibition (Influenza A virus [2]) | EC50 (Influenza A virus [3])
CCOC(=O)C1=C[C@@H](OC(CC)CC)[C@H](NC(C)=O)[C@@H](N)C1 [OSELTAMIVIR] | 21.7 µM | inactive | –
CCCCCCCCCCCCCCCC(=O)NCCCC[C@H](NC(=O)CCNC(=O)[C@H](CCCCN)NC(=O)[C@H](CCCCN)NC(=O)[C@H](CCC(N)=O)NC(=O)[C@@H](NC(=O)[C@H](CCC(=O)O)NC(=O)[C@H](CCC(=O)O)NC(=O)[C@@H](NC(=O)[C@H](CCCCN)NC(=O)[C@H](CCCCN)NC(=O)[C@H](CCC(N)=O)NC(=O)[C@@H](NC(=O)[C@H](CCC(=O)O)NC(=O)[C@H](CCC(=O)O)NC(=O)[C@@H](NC(=O)[C@H](CCCCN)NC(=O)[C@H](CCCCN)NC(=O)[C@H](CCC(N)=O)NC(=O)[C@@H](NC(=O)[C@H](CCC(=O)O)NC(=O)[C@H](CCC(=O)O)NC(=O)[C@@H](NC(=O)[C@H](CCCCN)NC(=O)[C@H](CCCCN)NC(=O)[C@H](CCC(N)=O)NC(=O)[C@@H](NC(=O)[C@H](CCC(=O)O)NC(=O)[C@H](CCC(=O)O)NC(=O)[C@@H](NC(=O)[C@H](CCCCN)NC(=O)[C@H](CCCCN)NC(=O)[C@H](CCC(N)=O)NC(=O)[C@@H](NC(=O)[C@H](CCC(=O)O)NC(=O)[C@H](CCC(=O)O)NC(=O)[C@@H](NC(C)=O)[C@@H](C)CC)[C@@H](C)CC)[C@@H](C)CC)[C@@H](C)CC)[C@@H](C)CC)[C@@H](C)CC)[C@@H](C)CC)[C@@H](C)CC)[C@@H](C)CC)[C@@H](C)CC)C(N)=O (Ac-IEEIQKKIEEIQKKIEEIQKKIEEIQKKIEEIQKK[βAla]K(Palmitoyl)-NH2) | 4.36 µM | – | 3.03 µM
